Measured values reported in US8889878B2, “Haloalky-substituted amides as insecticides and acaricides” (Bayer CropScience AG, priority 2009, dated 2014).
Values belong to the molecule of their own block, whether it stands above or below them.

Tests used:
Boophilus microplus = Boophilus microplus test (BOOPMI injection), Example 11; format: in vivo; conditions: application rate 20 μg/animal, injected into abdomen, after 7 days
Procedure: Boophilus microplus Test (BOOPMI Injection) • Solvent: dimethyl sulphoxide To prepare an appropriate active ingredient formulation, 10 mg of active ingredient are mixed with 0.5 ml of solvent and the concentrate is diluted with solvent to the desired concentration. The active ingredient solution is injected into the abdomen (Boophilus microplus), and the animals are transferred to dishes and stored in a climate-controlled room. The efficacy was assessed by the number of fertile eggs laid. After 7 days, the efficacy in % is determined. 100% means that none of the ticks has laid any fertile eggs.

[1] = tested on: armyworm (Spodoptera frugiperda); test: Spodoptera frugiperda test (SPODFR spray treatment), Example 15; format: in vivo; conditions: maize leaf discs sprayed, after 7 days
Procedure: Spodoptera frugiperda Test (SPODFR Spray Treatment)
(§1) • Solvent: 78.0 parts by weight of acetone • 1.5 parts by weight of dimethylformamide • Emulsifier: 0.5 part by weight of alkylaryl polyglycol ether
(§2) To prepare an appropriate active ingredient formulation, 1 part by weight of active ingredient is mixed with the stated amounts of solvent and emulsifier, and the concentrate is diluted with emulsifier-containing water to the desired concentration. Leaf discs from maize (Zea mays) are sprayed with an active ingredient formulation of the desired concentration and, after drying, populated with caterpillars of the armyworm (Spodoptera frugiperda).
After 7 days, the efficacy in % is determined. 100% means that all caterpillars were killed; 0% means that no caterpillars were killed.

[2] = logP by HPLC on reverse-phase column (EEC Directive 79/831 Annex V.A8); format: physicochemical
Procedure: The logP values reported in the above Tables and Preparation Examples were determined according to EEC Directive 79/831 Annex V.A8 by HPLC (High Performance Liquid Chromatography) on a reverse-phase column (C18). Temperature 43° C.

[3] = tested on: mustard beetle (Phaedon cochleariae); test: Phaedon test (PHAECO spray treatment), Example 7; format: in vivo; conditions: application rate 20 g/ha, china cabbage leaf discs sprayed, after 7 days
Procedure: Phaedon Test (PHAECO Spray Treatment)
as §1
as §2, with “an” for “an appropriate”, “china cabbage (Brassica pekinensis)” for “maize (Zea mays)”, “larvae” for “caterpillars”, “mustard beetle (Phaedon cochleariae).” for “armyworm (Spodoptera frugiperda).”
After 7 days, the efficacy in % is determined. 100% means that all beetle larvae were killed; 0% means that no beetle larvae were killed.

[4] = HPLC-MS, HPLC on reverse-phase column
[5] = HPLC, C18 reverse phase, 43° C., acidic range pH 2.7, calibration with alkan-2-ones

SMILES: Cn1ccc(NC(=O)c2ccc(/C=C/C(=O)NC(c3cccc(C(F)(F)F)c3)C(F)(F)F)cc2C(F)(F)F)n1 (stereo not drawn) [Ia-124]
efficacy in % (fertile eggs laid) (Boophilus microplus): 100% | efficacy in % ([1]; application rate 100 g/ha): 100% | logP ([2]; HPLC-MS): HPLC-MS: logP = 3.28; mass

SMILES: Cc1cc(/C=C/C(=O)NC(c2cccc(C(F)(F)F)c2)C(F)(F)F)ccc1C(=O)Nc1ccncc1 (stereo not drawn) [Ia-88]
efficacy in % [3]: 100% | logP ([2]; HPLC-MS): HPLC-MS: logP = 1.87 mass

SMILES: COC(=O)NNC(=O)c1ccc(/C=C/C(=O)NC(c2cccc(C(F)(F)F)c2)C(F)(F)F)cc1Cl (stereo not drawn) [Ia-109]
efficacy in % [3]: 100% | logP ([2]; HPLC-MS): HPLC-MS: logP = 2.72 mass

SMILES: Cc1cc(/C=C/C(=O)NC(c2cccc(C(F)(F)F)c2)C(F)(F)F)ccc1C(=O)NC(C)C (stereo not drawn) [Ia-102]
efficacy in % [3]: 100% | logP ([2]; HPLC-MS): HPLC-MS: logP = 3.27 mass

SMILES: Cc1cc(/C=C/C(=O)NC(c2cccc(C(F)(F)F)c2)C(F)(F)F)ccc1C(=O)NC1COC1 (stereo not drawn) [Ia-83]
efficacy in % [3]: 100% | logP ([2]; HPLC-MS): HPLC-MS: logP = 2.69 mass

SMILES: O=C(/C=C/c1ccc(C(=O)NCC=CCl)c(C(F)(F)F)c1)NC(c1cccc(C(F)(F)F)c1)C(F)(F)F (stereo not drawn) [Ia-145]
efficacy in % (fertile eggs laid) (Boophilus microplus): 100% | logP ([2]; HPLC-MS): HPLC-MS: logP = 3.69; mass

SMILES: O=C(/C=C/c1ccc(C(=O)NCc2nccs2)c(Cl)c1)NC(c1cccc(C(F)(F)F)c1)C(F)(F)F (stereo not drawn) [Ia-159]
efficacy in % (fertile eggs laid) (Boophilus microplus): 100% | logP ([2]; HPLC-MS): HPLC-MS: logP = 3.13; mass

SMILES: O=C(/C=C/c1ccc(-n2cccn2)c(C(F)(F)F)c1)NC(c1cccc(C(F)(F)F)c1)C(F)(F)F (stereo not drawn) [Ia-135]
efficacy in % (fertile eggs laid) (Boophilus microplus): 100% | logP ([2]; HPLC-MS): HPLC-MS: logP = 3.95; mass

SMILES: NC(=O)c1ccc(/C=C/C(=O)NC(c2cccc(C(F)(F)F)c2)C(F)(F)F)cc1Cl (stereo not drawn) [Ia-157]
efficacy in % (fertile eggs laid) (Boophilus microplus): 100% | logP ([2]; HPLC-MS): HPLC-MS: logP = 2.75; mass

SMILES: N#CCNC(=O)c1ccc(/C=C/C(=O)NC(c2cccc(C(F)(F)F)c2)C(F)(F)F)cc1C(F)(F)F (stereo not drawn) [Ia-129]
efficacy in % (fertile eggs laid) (Boophilus microplus): 100% | efficacy in % ([1]; application rate 100 g/ha): 100% | logP ([2]; HPLC-MS): HPLC-MS: logP = 3.19; mass

SMILES: CCC(C)NC(=O)c1ccc(/C=C/C(=O)NC(c2cccc(C(F)(F)F)c2)C(F)(F)F)cc1C(F)(F)F (stereo not drawn) [Ia-144]
efficacy in % (fertile eggs laid) (Boophilus microplus): 100% | logP ([2]; HPLC-MS): HPLC-MS: logP = 3.84; mass

SMILES: O=C(/C=C/c1ccc(C(=O)NCc2cc(Cl)ccn2)c(C(F)(F)F)c1)NC(c1cccc(C(F)(F)F)c1)C(F)(F)F (stereo not drawn) [Ia-126]
efficacy in % (fertile eggs laid) (Boophilus microplus): 100% | logP ([2]; HPLC-MS): HPLC-MS: logP = 3.68; mass

SMILES: O=C(/C=C/c1ccc(C(=O)N(Cc2cccnc2)C2CC2)c(C(F)(F)F)c1)NC(c1cccc(C(F)(F)F)c1)C(F)(F)F (stereo not drawn) [Ia-258]
efficacy in % ([1]; application rate 100 g/ha): 100% | logP ([2]; HPLC-MS): HPLC-MS: logP = 2.8; mass

SMILES: CC(NC(=O)c1ccc(/C=C/C(=O)NC(c2cccc([N+](=O)[O-])c2)C(F)(F)F)cc1C(F)(F)F)C(F)(F)F (stereo not drawn) [Ia-28]
efficacy in % ([1]; application rate 500 g/ha): 83% | logP ([2]; HPLC-MS): HPLC-MS: logP = 3.83; mass

SMILES: O=C(/C=C/c1ccc(CNS(=O)(=O)C2CC2)c(C(F)(F)F)c1)NC(c1cccc(C(F)(F)F)c1)C(F)(F)F (stereo not drawn) [Ia-271]
efficacy in % ([1]; application rate 100 g/ha): 100% | logP [2, 4]: HPLC-MS: logP = 3.74; mass

SMILES: O=C(/C=C/c1ccc(C(=O)Nc2ncccc2Cl)c(Cl)c1)NC(c1cccc(C(F)(F)F)c1)C(F)(F)F (stereo not drawn) [Ia-183]
efficacy in % ([1]; application rate 100 g/ha): 83% | logP ([2]; HPLC-MS): HPLC-MS: logP = 3.44; mass

SMILES: O=C(/C=C/c1ccc(C(=O)Nc2cccnn2)c(C(F)(F)F)c1)NC(c1cccc(C(F)(F)F)c1)C(F)(F)F (stereo not drawn) [Ia-225]
efficacy in % ([1]; application rate 100 g/ha): 100% | logP ([2]; HPLC-MS): HPLC-MS: logP = 3.27; mass

SMILES: CCOC1(NC(=O)c2ccc(/C=C/C(=O)NC(c3cccc(C(F)(F)F)c3)C(F)(F)F)cc2Br)CC1 (stereo not drawn) [Ia-237]
efficacy in % (fertile eggs laid) (Boophilus microplus): 100% | logP ([2]; HPLC-MS): HPLC-MS: logP = 3.42; mass

SMILES: O=C(/C=C/c1ccc(C(=O)NC2CC2)c(Cl)c1)NC(c1cccc(Cl)c1)C(F)(F)F (stereo not drawn) [Ia-235]
efficacy in % ([1]; application rate 500 g/ha): 83% | logP ([2]; HPLC-MS): HPLC-MS: logP = 3.03; mass

SMILES: CC(C#N)(NC(=O)c1ccc(/C=C/C(=O)NC(c2cccc(C(F)(F)F)c2)C(F)(F)F)cc1C(F)(F)F)C1CC1 (stereo not drawn) [Ia-172]
efficacy in % ([1]; application rate 100 g/ha): 100% | logP ([2]; HPLC-MS): HPLC-MS: logP = 3.74; mass

SMILES: C#CC(C)(C)NC(=O)c1ccc(/C=C/C(=O)NC(c2cccc(C(F)(F)F)c2)C(F)(F)F)cc1Cl (racemic) [Ia-196]
efficacy in % ([1]; application rate 100 g/ha): 83% | logP ([2]; HPLC-MS): HPLC-MS: logP = 3.64; mass

SMILES: N#Cc1ccc(NC(=O)c2ccc(/C=C/C(=O)NC(c3cccc(C(F)(F)F)c3)C(F)(F)F)cc2Cl)nc1 (racemic) [Ia-205]
efficacy in % ([1]; application rate 100 g/ha): 100% | logP ([2]; HPLC-MS): HPLC-MS: logP = 3.72; mass

SMILES: O=C(/C=C/c1ccc(C(=O)Nc2ccc(F)cn2)c(Br)c1)NC(c1cccc(C(F)(F)F)c1)C(F)(F)F (racemic) [Ia-212]
efficacy in % ([1]; application rate 100 g/ha): 100% | logP ([2]; HPLC-MS): HPLC-MS: logP = 3.87; mass

SMILES: N#Cc1ccc(NC(=O)c2ccc(/C=C/C(=O)NC(c3cccc(C(F)(F)F)c3)C(F)(F)F)cc2C(F)(F)F)nc1 (racemic) [Ia-211]
efficacy in % ([1]; application rate 100 g/ha): 100% | logP ([2]; HPLC-MS): HPLC-MS: logP = 3.82; mass

SMILES: O=C(/C=C/c1ccc(C(=O)Nc2cc(Cl)ccn2)c(C(F)(F)F)c1)NC(c1cccc(C(F)(F)F)c1)C(F)(F)F (stereo not drawn) [Ia-121]
efficacy in % (fertile eggs laid) (Boophilus microplus): 100% | logP ([2]; HPLC-MS): HPLC-MS: logP = 4.3; mass

SMILES: O=C(/C=C/c1ccc(C(=O)Nc2ccncn2)c(C(F)(F)F)c1)NC(c1cccc(C(F)(F)F)c1)C(F)(F)F (stereo not drawn) [Ia-125]
efficacy in % (fertile eggs laid) (Boophilus microplus): 100% | efficacy in % ([1]; application rate 100 g/ha): 100% | logP ([2]; HPLC-MS): HPLC-MS: logP = 3.35; mass

SMILES: O=C(/C=C/c1ccc(C(=O)Nc2ccc([N+](=O)[O-])cn2)c(Cl)c1)NC(c1cccc(C(F)(F)F)c1)C(F)(F)F (racemic) [Ia-204]
efficacy in % ([1]; application rate 100 g/ha): 100% | logP ([2]; HPLC-MS): HPLC-MS: logP = 3.95; mass

SMILES: N#Cc1ccnc(NC(=O)c2ccc(/C=C/C(=O)NC(c3cccc(C(F)(F)F)c3)C(F)(F)F)cc2C(F)(F)F)c1 (stereo not drawn) [Ia-260]
efficacy in % ([1]; application rate 100 g/ha): 100% | logP [2, 4]: HPLC-MS: logP = 3.61; mass

SMILES: CC(NC(=O)c1ccc(/C=C/C(=O)NC(c2cccc(C(F)(F)F)c2)C(F)(F)F)cc1Br)C(F)(F)F (stereo not drawn) [Ia-176]
efficacy in % ([1]; application rate 100 g/ha): 100% | logP ([2]; HPLC-MS): HPLC-MS: logP = 3.78; mass

logP [2, 5]: HPLC-MS: logP = 3.48; mass
SMILES: N#Cc1ccc2[nH]c(C(=O)NC(c3cccc(C(F)(F)F)c3)C(F)(F)F)cc2c1 (stereo not drawn) [Ic-4]
efficacy in % ([1]; application rate 500 g/ha): 83%

SMILES: O=C(/C=C/c1ccc(C(=O)Nc2ncc(Cl)cn2)c(C(F)(F)F)c1)NC(c1cccc(C(F)(F)F)c1)C(F)(F)F (stereo not drawn) [Ia-137]
efficacy in % ([1]; application rate 100 g/ha): 100% | logP ([2]; HPLC-MS): HPLC-MS: logP = 3.62; mass

SMILES: N#Cc1cc(/C=C/C(=O)NC(c2cc(Cl)ccc2Cl)C(F)(F)F)ccc1-n1cncn1 (stereo not drawn) [Ia-15]
efficacy in % ([1]; application rate 500 g/ha): 83% | logP ([2]; HPLC-MS): HPLC-MS: logP = 3.19; mass

SMILES: CN(C(=O)c1ccc(/C=C/C(=O)NC(c2ccc(F)c(C(F)(F)F)c2)C(F)(F)F)cc1C(F)(F)F)c1ccccn1 (stereo not drawn) [Ia-281]
efficacy in % ([1]; application rate 100 g/ha): 100% | logP [2, 4]: HPLC-MS: logP = 3.63; mass

SMILES: O=C(/C=C/c1ccc2c(c1)CCC2NC(=O)CC1CC1)NC(c1cccc(C(F)(F)F)c1)C(F)(F)F (stereo not drawn) [Ie-2]
efficacy in % ([1]; application rate 100 g/ha): 100% | logP [2, 5]: HPLC-MS: logP = 3.54; mass

SMILES: N#Cc1cnn(-c2ccc(/C=C/C(=O)NC(c3cccc(C(F)(F)F)c3)C(F)(F)F)cc2Cl)c1 (racemic) [Ia-200]
efficacy in % ([1]; application rate 100 g/ha): 100% | logP ([2]; HPLC-MS): HPLC-MS: logP = 3.83; mass

SMILES: O=C(/C=C/c1ccc(C(=O)Nc2ccc(F)cn2)c(Cl)c1)NC(c1cccc(C(F)(F)F)c1)C(F)(F)F (racemic) [Ia-203]
efficacy in % ([1]; application rate 100 g/ha): 100% | logP ([2]; HPLC-MS): HPLC-MS: logP = 3.84; mass
